# Experimental data taken from patent publication US11807627B2, “Morphic forms of complement factor D inhibitors” (priority 2018, dated 2023).
# Legend:
# Type in all cases: physicochemical
# [1] = Drying of isolated samples at 50° C. for approximately 24 hours
# Procedure: Samples produced from thermal cycling, cooling and evaporation experiments were dried at 50° C. for approximately 24 hours to assess any de-solvation/dehydration. From temperature cycling experiments, 3 samples converted upon drying: • Acetonitrile sample converted from Form J to amorphous; • 40% Ethanol/60% Water (% v/v) converted from Form N to Form P; and • Methanol sample converted from Form O to amorphous.
# [2] = Hygroscopicity / dynamic vapour sorption (DVS)
# Procedure: (§1) Approximately, 10-20 mg of sample were placed into a mesh vapour sorption balance pan and loaded into a DVS Intrinsic dynamic vapour sorption balance by Surface Measurement Systems. The sample was subjected to a ramping profile from 40-90% relative humidity (RH) at 10% increments, maintaining the sample at each step until a stable weight had been achieved (dm/dt 0.004%, minimum step length 30 minutes, maximum step length 500 minutes) at 25° C. After completion of the sorption cycle, the sample was dried using the same procedure to 0% RH and then a second sorption cycle back to 40% RH. Two cycles were performed. The weight change during the sorption/desorption cycles were plotted, allowing for the hygroscopic nature of the sample to be determined. XRPD analysis was then carried out on any solid retained.
# as §1, with “Approximately, 10” for “Approximately, 10-20”, “sample was” for “sample were”, “a DVS-1” for “a DVS Intrinsic”
# [3] = Polarized light microscopy (PLM); details: Table 27A
# Procedure: The presence of crystallinity (birefringence) was determined using an Olympus BX50 microscope, equipped with cross-polarizing lenses and a Motic camera. Images were captured using Motic Images Plus 2.0. All images were recorded using the 20×objective, unless otherwise stated. All samples were prepared using silicone oil and covered with a cover slip before PLM analysis was completed.
# [4] = Variable temperature XRPD (VT-XRPD); details: Table 27A
# Procedure: VT-XRPD analysis was carried out on a Philips X'Pert Pro Multipurpose diffractometer equipped with a temperature chamber. The samples were scanned between 4 and 35.99°2θ using Cu K radiation (α1λ=1.54060 Å; α2=1.54443 Å; β=1.39225 Å; α1: α2 ratio=0.5) running in Bragg-Brentano geometry (step size 0.008°2θ) using 40 kV/40 mA generator settings.
# [5] = Storage stability of Compound 3 forms (80° C., 40° C./75% RH, 25° C./60% RH, ambient); details: 1 week
# Procedure: No changes by XRPD or HPLC purity were observed when the material was stored at 40° C./75% RH, 80° C. or under ambient conditions.
# [6] = Thermogravimetric/differential thermal analysis (TG/DTA)
# Procedure: Approximately, 5 mg of material was weighed into an open aluminium pan and loaded into a simultaneous thermogravimetric/differential thermal analyzer (TG/DTA) and held at room temperature. The sample was then heated at a rate of 10° C./min from 20° C. to 400° C. during which time the change in sample weight occurred was recorded along with any differential thermal events (DTA). Nitrogen was used as the purge gas at a flow rate of 300 cm^3/min.
# [7] = Differential scanning calorimetry (DSC)
# Procedure: DSC was performed using a TA Instruments 2920 or Q2000 differential scanning calorimeter. Temperature calibration was performed using NIST-traceable indium metal. The sample was placed into an aluminum DSC pan, covered with a lid, and the weight was accurately recorded. A weighed aluminum pan configured as the sample pan was placed on the reference side of the cell. The method code on the thermogram is an abbreviation for the start and end temperature as well as the heating rate; e.g., -30-250-10 means “from −30° C. to 250° C., at 10° C./min”. The following table summarizes the abbreviations used in each image for pan configurations: […]
# [8] = Solubility in selected media (FaSSIF, FeSSIF, FaSSGF, pH 4 citrate, pH 6.8 phosphate)
# Procedure: Solubility within selected media (FaSSIF, FeSSIF, FaSSGF, pH 4 citrate and pH 6.8 phosphate) was measured to be <0.01 mg/mL.
# The pH 4 citrate buffer was prepared by dissolving sodium citrate (987 mg) and citric acid (1.28 g) in 100 mL H2O. The pH was adjusted to 4. The pH 6.8 phosphate buffer was prepared by dissolving dibasic sodium phosphate dihydrate (873 mg) and monobasic sodium phosphate monohydrate (708 mg) in 100 mL H2O. The pH was adjusted to 6.8. The FaSSIF media was prepared with sodium hydroxide (108 mg), sodium chloride (1.55 g) and monobasic sodium phosphate dihydrate (1.12 g) in H2O (0.25 L) and the pH adjusted to 6.5. FaSSIF/FeSSIF/FaSSGF (0.56 g) was dissolved in the buffer and mixed until opalescent. The FeSSIF media was prepared by dissolving sodium hydroxide (1.01 g), sodium chloride (2.96 g) and glacial acetic acid (2.97 g) in H2O (0.25 L) and the pH adjusted to pH 5. FaSSIF/FeSSIF/FaSSGF (2.81 g) was dissolved in the buffer and thoroughly mixed. The FaSSGF media was prepared by dissolving FaSSIF/FeSSIF/FaSSGF (0.06 g) in a solution of sodium chloride (2.00 g) dissolved in H2O (1 L) and mixing thoroughly.
smiles,measurement,setting,value
CC(=O)c1nn(CC(=O)N2[C@H](C(=O)Nc3nc(Br)ccc3C)C[C@@]3(C)C[C@@H]23)c2ccc(-c3cnc(C)nc3)cc12 [Form J],Form after drying (de-solvation/dehydration),[1],amorphous
same,DVS analysis: hygroscopic nature,[2]; 25° C.,hygroscopic
same,DVS: hygroscopicity,[2]; Table 27A,Hygroscopic first
same,XRPD post DVS,[2]; Table 27A,Form B
same,Post-DVS XRPD analysis,[2]; after DVS,pattern D
same,DVS uptake,[2]; first sorption cycle,6.9 wt %
same,DVS uptake as equivalents of water,[2]; first sorption cycle,2.5 equiv. water
same,DVS uptake,[2]; second sorption cycle,5.2 wt %
same,DVS uptake as equivalents of water,[2]; second sorption cycle,1.8 equiv. water
same,PLM,[3],Birefringent rods
same,VT-XRPD: Form J de-solvated to Pattern G,[4],Pattern G (120° C.)
same,1 week stability: 40° C./75% RH HPLC (uncapped),[5],99.8% (by relative area)
same,1 week stability: 80° C. HPLC (capped),[5],99.9% (by relative area)
same,1 week stability: 80° C. XRPD (capped),[5],Pattern D
same,1 week stability: Ambient conditions HPLC (capped),[5],99.9% (by relative area)
same,Onset Temp: Solvent loss,[6]; Table 22B,"loss 129.3, ° C."
same,Onset Temp: melting transition,[6]; Table 22B,200.0 °C
same,TG/DTA: Melting,[6]; Table 27A,melting 206.7 °C
same,TG/DTA: Solvent loss,[6]; Table 27A,"Solvent loss 138.5° C.,"
same,Mass loss within the TG trace,[6]; up to 150° C.,2.2 wt %
same,Thermal events from SSCI report: Exothermic base line shifts,[7]; SSCI report,"~134° C., apparent"
same,Thermal events from SSCI report: apparent melt onset,[7]; SSCI report,melt onset 83 °C
same,DSC: Melting,"[7]; onset, Table 27A",melting 202.9 °C
same,DSC: Solvent loss,"[7]; onset, Table 27A",Solvent loss 138.5 °C
same,DSC: Melting (peak),"[7]; peak, Table 27A",(peak 213.3° C.)
same,DSC: Solvent loss (peak),"[7]; peak, Table 27A",(peak 152.4° C.)
same,solubility,[8]; FaSSGF,<10 µg/mL
same,solubility,[8]; FaSSIF,<10 µg/mL
same,solubility,[8]; FeSSIF,<10 µg/mL
